Data: patent publication US10745365B2, “Luminogenic and fluorogenic compounds and methods to detect molecules or conditions” (Promega Corporation, priority 2005, dated 2020)

Key:
Type in all cases: biochemical
[1] = biological target: T1, QuantiLum Luciferase (firefly luciferase) (Photinus pyralis, UniProt P08659); assay: Residual active QuantiLum luciferase after reaction with derivative (Steady Glo)
T1 construct: purchased Promega Corporation El 70
Experimental: (§1) After producing the solutions in Table 37, the volume of all reactions was adjusted to 990 μl with water. […] While the light reading was being taken, a 10 μl sample of the reaction was diluted to 500 μl with enzyme stop solution (cooled on ice to 4° C.) mixed and placed on ice and a second sample of 90 μl of reaction was added to 10 μl of Gel/HPLC stop and the tube placed at −20° C. A timer was started with the start of the first reaction and the start times of the remaining reactions was noted. At 15, 30, 45 and 60 minutes, each reaction was sampled as above and the light produced in the luminometer tubes was measured. At 7 and 22 minutes, the light produced in the luminometer tubes was read, but the reactions were not sampled.
After all samples were taken, 50 μl of the sample diluted into enzyme stop solution was mixed with 50 μl of Steady Glo Luciferase Reagent (Promega) and the light produced measured after incubating at room temperature for 10 minutes. This measured the active luciferase in the initial reaction.
as §1, with “40,” for “37,”, “−200” for “−20°”

[2] = biological target: T1, QuantiLum Luciferase (firefly luciferase); assay: Light emission of QuantiLum firefly luciferase with luciferin derivatives; conditions: for Light emission, Alone: Alone (no addition)
Experimental: Gel and HPLC stop solution. Solid EDTA (free acid) was placed in a beaker with water and the pH of the solution adjusted to pH 7.0. The solution was then adjusted in volume to produce a solution 400 mM in EDTA.
Enzyme stop solution. A solution was prepared containing 20 mM Bis Tris, pH 6.5, 2 mM EDTA and 1 mg/ml bovine serum albumin.
Reaction buffer (2×). A solution was made containing 100 mM HEPES buffer, pH 8.0; 10 mM MgCl2.
DTT stock. Solid DTT (dithiothreitol) was dissolved in water and then adjusted to pH 8.0 with solid sodium hydroxide. The solution was then adjusted in volume to produce a solution 1 M in DTT.
as §1
as §1, with “40,” for “37,”, “−200” for “−20°”
The DTT, Coenzyme A, and QuantiLum stock solutions are the same as those described herein.
This solution was diluted 1:1 with water to produce an enzyme solution labeled “No addition.” This solution was diluted 1:1 with 400 mM DTT, pH 8.0 to produce a solution labeled+DTT. This solution was diluted 1: 1 with 4 mM Coenzyme A to produce a solution labeled+Co A. Finally, this solution was diluted 1: 1 with a solution having both 4 mM Coenzyme A and 400 mM DTT to produce a solution labeled+Co A & DTT.
50 μl samples of these solutions were placed in the wells of luminometer microtiter plates, row A to row G, respectively. Row H of the plates was given 50 μl of water.
Reactions in these plates were initiated by addition of 50 μl of solution containing QuantiLum luciferase using a 12 channel micropipette. The solutions added to the rows were: columns 1, 5, and 9—no addition solution; columns 2, 6, and 10—+Co A solution; columns 3, 7, and 11—+DTT solution, and; columns 4, 8, and 12—+Co A and DTT solution. After addition of the enzyme solution to the first row on every plate, a timer was started. After addition of the enzyme solution to the last row on each plate, the plate was sealed and read on a Veritas luminometer.

[3] = tested on: thermostable luciferase (Luc 146-1H2); assay: Light emission of thermostable luciferase with luciferin derivatives; conditions: 100 μM each
Experimental: This stock was used to produce enzyme stock solution having of 200 μg/ml enzyme solution in 1 mg/ml BSA, 200 mM HEPES buffer, pH 8.0, 20 mM MgCl2.
Solutions were made using a 1 M DTT solution, pH adjusted to 8.0, a 20 mM Coenzyme A solution in water (both described in examples above), a 100 mM ATP solution and water to create the following solutions: Sol′ A, 100 μM ATP; Sol′B, 100 μM ATP, 4 mM Coenzyme A; Sol′n C, 100 μM ATP, 400 mM DTT, and; Sol′n D, 100 μM ATP, 4 mM Coenzyme A and 400 mM DTT.
After assembly, the reactions were initiated by addition of 25 μl of the thermostable luciferase stock solution above and mixing the tube contents. A 50 μl sample was immediately removed and placed in a luminometer tube and the light read and the tube then replaced in a tube rack at room temperature. While the light reading was being taken, a 5 μl sample of the remaining reaction (which was kept at room temperature) was diluted into 495 μl of 50 mM BisTris, pH 6.5, 1 mg/ml BSA, 1 mM EDTA prechilled to 4° C. and the tube mixed and placed on ice. The light produced by the samples in the luminometer tubes were re-read at 20, 40, 60, 90 and 120 minutes post enzyme addition. Additional 5 μl samples were taken and diluted as above at 60 and 120 minutes post enzyme addition. Once all these readings and samples were taken, 50 μl of the diluted samples was mixed with 50 μl of Steady Glo in luminometer tubes, the tubes incubated 10 minutes […] then the light produced was read on a Turner TD 20/20 luminometer.

T1 sequence (P08659 whole entry): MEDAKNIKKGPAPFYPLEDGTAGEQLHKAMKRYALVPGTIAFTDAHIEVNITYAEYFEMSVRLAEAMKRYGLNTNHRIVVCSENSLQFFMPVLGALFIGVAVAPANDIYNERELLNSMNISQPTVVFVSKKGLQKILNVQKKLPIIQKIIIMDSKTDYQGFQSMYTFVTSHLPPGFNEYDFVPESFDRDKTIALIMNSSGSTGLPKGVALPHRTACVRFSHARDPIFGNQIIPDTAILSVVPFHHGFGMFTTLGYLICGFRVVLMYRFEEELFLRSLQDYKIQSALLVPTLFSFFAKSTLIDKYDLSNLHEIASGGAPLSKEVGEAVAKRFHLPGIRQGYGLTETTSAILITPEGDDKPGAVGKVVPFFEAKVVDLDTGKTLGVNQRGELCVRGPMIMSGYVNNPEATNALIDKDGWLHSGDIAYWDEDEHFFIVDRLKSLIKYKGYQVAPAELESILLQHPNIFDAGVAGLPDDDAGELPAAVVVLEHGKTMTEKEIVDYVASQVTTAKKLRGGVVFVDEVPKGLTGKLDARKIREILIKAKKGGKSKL

For `O=C(O)[C@H]1CSC(c2nc3ccc(OCc4ccccc4)cc3s2)=N1` [Luc’in BE], the “Light reading from residual active enzyme at time 0 min” value ([1]; +Co A) was 186.7, the “Light reading from residual active enzyme at time 15 min” value ([1]; +Co A) was 179.6 and the “Light reading from residual active enzyme at time 30 min” value ([1]; +Co A) was 179.4. The “Light reading from residual active enzyme at time 45 min” value ([1]; +Co A) was 157.9, the “Light reading from residual active enzyme at time 60 min” value ([1]; +Co A) was 161.8 and the “Light reading from residual active enzyme at time 0 min” value ([1]; +DTT) was 194. The “Light reading from residual active enzyme at time 15 min” value ([1]; +DTT) was 233.7, the “Light reading from residual active enzyme at time 30 min” value ([1]; +DTT) was 224.7 and the “Light reading from residual active enzyme at time 45 min” value ([1]; +DTT) was 219.5. The “Light reading from residual active enzyme at time 60 min” value ([1]; +DTT) was 226.4, the “Light reading from residual active enzyme at time 0 min” value ([1]; +EDTA) was 170 and the “Light reading from residual active enzyme at time 15 min” value ([1]; +EDTA) was 142.7. The “Light reading from residual active enzyme at time 30 min” value ([1]; +EDTA) was 140.4, the “Light reading from residual active enzyme at time 45 min” value ([1]; +EDTA) was 141.7 and the “Light reading from residual active enzyme at time 60 min” value ([1]; +EDTA) was 135.4. The “Light reading from residual active enzyme at time 0 min” value ([1]; No addition) was 129.7, the “Light reading from residual active enzyme at time 15 min” value ([1]; No addition) was 69.9 and the “Light reading from residual active enzyme at time 30 min” value ([1]; No addition) was 47.31. The “Light reading from residual active enzyme at time 45 min” value ([1]; No addition) was 37.94, the “Light reading from residual active enzyme at time 60 min” value ([1]; No addition) was 29.08 and the “Light reading from residual active enzyme at time 0 min” value ([1]; w/o ATP) was 168.3. The “Light reading from residual active enzyme at time 15 min” value ([1]; w/o ATP) was 174.1, the “Light reading from residual active enzyme at time 30 min” value ([1]; w/o ATP) was 171.7 and the “Light reading from residual active enzyme at time 45 min” value ([1]; w/o ATP) was 172.9. The “Light reading from residual active enzyme at time 60 min” value ([1]; w/o ATP) was 164, the “Light reading at time 0 min” value ([2]; +Co A) was 139.5 and the “Light reading at time 7 min” value ([2]; +Co A) was 11.92. The “Light reading at time 15 min” value ([2]; +Co A) was 10.99, the “Light reading at time 22 min” value ([2]; +Co A) was 9.941 and the “Light reading at time 30 min” value ([2]; +Co A) was 7.379. For the same compound, the “Light reading at time 45 min” value ([2]; +Co A) was 7.284, the “Light reading at time 60 min” value ([2]; +Co A) was 6.433 and the “Light reading at time 0 min” value ([2]; +DTT) was 948. For the same compound, the “Light reading at time 7 min” value ([2]; +DTT) was 532.8, the “Light reading at time 15 min” value ([2]; +DTT) was 417 and the “Light reading at time 22 min” value ([2]; +DTT) was 369.5. The “Light reading at time 30 min” value ([2]; +DTT) was 331.6, the “Light reading at time 45 min” value ([2]; +DTT) was 273.5 and the “Light reading at time 60 min” value ([2]; +DTT) was 226.9. For the same compound, the “Light reading at time 0 min” value ([2]; +EDTA) was 1.004, the “Light reading at time 7 min” value ([2]; +EDTA) was 0.771 and the “Light reading at time 15 min” value ([2]; +EDTA) was 0.639. For the same compound, the “Light reading at time 22 min” value ([2]; +EDTA) was 0.562, the “Light reading at time 30 min” value ([2]; +EDTA) was 0.461 and the “Light reading at time 45 min” value ([2]; +EDTA) was 0.425. For the same compound, the “Light reading at time 60 min” value ([2]; +EDTA) was 0.354, the “Light reading at time 0 min” value ([2]; No addition) was 135.2 and the “Light reading at time 7 min” value ([2]; No addition) was 22.61. For the same compound, the “Light reading at time 15 min” value ([2]; No addition) was 12.79, the “Light reading at time 22 min” value ([2]; No addition) was 9.256 and the “Light reading at time 30 min” value ([2]; No addition) was 6.928. For the same compound, the “Light reading at time 45 min” value ([2]; No addition) was 4.879, the “Light reading at time 60 min” value ([2]; No addition) was 3.311 and the “Light reading at time 0 min” value ([2]; w/o ATP) was 0.015. For the same compound, the “Light reading at time 7 min” value ([2]; w/o ATP) was 0, the “Light reading at time 15 min” value ([2]; w/o ATP) was 0.008 and the “Light reading at time 22 min” value ([2]; w/o ATP) was 0.005. For the same compound, the “Light reading at time 30 min” value ([2]; w/o ATP) was 0, the “Light reading at time 45 min” value ([2]; w/o ATP) was 0 and the “Light reading at time 60 min” value ([2]; w/o ATP) was 0.01.
`CN(C)c1ccc2nc(C3=NC(C(=O)O)CS3)sc2c1` (stereo not shown) [dimethyl amino luciferin] was tested, and the “brightness relative to amino luciferin” value [3] was “only about half as bright”.
`O=C(O)C1CSC(c2nc3ccc(NCCCO)cc3s2)=N1` (stereo not shown) [N-(3-hydroxypropyl)-aminoluciferin] was tested, and the “luciferase substrate” value [2] was “substrate for luciferase that provides sufficient light output for a luminescence reaction”.
`O=C(O)[C@H]1CSC(c2nc3ccc(OCc4ccccc4)cc3s2)=N1` [luciferin-6-benzylether, reference compound] was tested, and the “Light emission, Co A” value ([2]; Derivative Conc. 3.13 μM, +Co A) was 55778, the “Light emission, Co A + DTT” value ([2]; Derivative Conc. 3.13 μM) was 80626 and the “Light emission, DTT” value ([2]; Derivative Conc. 3.13 μM, +DTT) was 86445. The “Light emission, Alone” value ([2]; Derivative Conc. 3.13 μM) was 32994, the “Light emission, Co A” value ([2]; Derivative Conc. 6.25 μM, +Co A) was 58288 and the “Light emission, Co A + DTT” value ([2]; Derivative Conc. 6.25 μM) was 105912. The “Light emission, DTT” value ([2]; Derivative Conc. 6.25 μM, +DTT) was 100044, the “Light emission, Alone” value ([2]; Derivative Conc. 6.25 μM) was 38838 and the “Light emission, Co A” value ([2]; Derivative Conc. 25 μM, +Co A) was 53097. For the same compound, the “Light emission, Co A + DTT” value ([2]; Derivative Conc. 25 μM) was 90306, the “Light emission, DTT” value ([2]; Derivative Conc. 25 μM, +DTT) was 84034 and the “Light emission, Alone” value ([2]; Derivative Conc. 25 μM) was 40093. For the same compound, the “Light emission, Co A” value ([2]; Derivative Conc. 50 μM, +Co A) was 38349, the “Light emission, Co A + DTT” value ([2]; Derivative Conc. 50 μM) was 98716 and the “Light emission, DTT” value ([2]; Derivative Conc. 50 μM, +DTT) was 80001. For the same compound, the “Light emission, Alone” value ([2]; Derivative Conc. 50 μM) was 30609, the “Light emission, Co A” value ([2]; Derivative Conc. 100 μM, +Co A) was 33199 and the “Light emission, Co A + DTT” value ([2]; Derivative Conc. 100 μM) was 64460. The “Light emission, DTT” value ([2]; Derivative Conc. 100 μM, +DTT) was 54592 and the “Light emission, Alone” value ([2]; Derivative Conc. 100 μM) was 31581.
